Experimental data: paper PMC5059758, “Structural characterization of antibiotic self-immunity tRNA synthetase in plant tumour biocontrol agent” (Nature Communications, 2016)

How the values were obtained:
[1] = system: LeuRSAt Triad (P45T/N105A/M633Q); experiment: Aminoacylation assay, LeuRSAt Triad mutant; assay type: biochemical, A. tumefaciens; conditions: TM84 concentrations as high as 500 nM, 4 nM enzyme, 0.63 mM ATP
[2] = biological target: T1, LeuRS H. pylori (LeuRSHp) (Helicobacter pylori, UniProt P56457); experiment: Aminoacylation assay, LeuRSHp; assay type: biochemical; conditions: aminoacylation of agrobacterium tRNALeu, 37 °C, 4 nM enzyme
T1 construct: made in house
Description: (§1) Aminoacylation activities of AgnB2, LeuRSAt and their mutants were measured in 50 mM HEPES buffer (pH 7.4) containing 20 mM KCl, 25 mM MgCl2, 25 mM β-ME, 4 mM ATP, 500 μM [3,4,5-^3H] L-leucine (20 μCi/mmole), 5 μg/ml inorganic pyrophosphatase, 1 μM BSA, 10 μM of active in vitro transcribed tRNA^Leu and enzymes in the range of 2–8 nM. Reactions were pre-incubated with or without substrate and/or inhibitor and then carried out at 28 °C (37 °C-LeuRSHp). Aliquots of the reaction (5–10 μl) were quenched on 3 mM filter pads (Whatman, GE Healthcare) presoaked with 5% trichloroacetic acid (TCA). The pads were washed thrice with 5% TCA and 90% ethanol at 4 °C and then dried. The amount of Leu-tRNA^Leu was then quantified using scintillation counting. Each reaction was performed in triplicate and analyzed using Kaleidagraph (for Km and kcat determinations) or GraphPad Prism software (for IC50 determination).

[3] = system: AgnB2 Triple Q413R; experiment: Isothermal titration calorimetry, AgnB2 Triple Q413R mutant; assay type: binding, Agrobacterium radiobacter K84; conditions: ITC
Description: (§2) Typically, about 4–8 μM active protein solution and a 10-fold higher ligand concentration were prepared in buffer containing 50 mM HEPES (pH 7.4), 20 mM KCl 10 mM MgCl2 and 1 mM β-ME. The titrations were carried out in triplicate at 28 °C. The data was then analyzed using Origin software (version 7) and fitted to a one-site or a two-site binding model to obtain the binding affinity (Kd), stoichiometry (N) and enthalpy (ΔH) for each complex.

[4] = system: AgnB2 Triple (T42P/A102N/Q573M); experiment: Isothermal titration calorimetry, AgnB2 Triple mutant; assay type: binding, Agrobacterium radiobacter K84; conditions: ITC
Description: as §2

[5] = system: agrobacterial IleRS; conditions: cited from earlier work
[6] = biological target: T2, AgnB2 Triple + Q413R mutant (Agrobacterium radiobacter, UniProt B9JQP8, A102N/Q413R/Q573M/T42P); experiment: Aminoacylation assay, AgnB2 Triple + Q413R mutant; assay type: biochemical, Agrobacterium radiobacter K84; conditions: fixed ATP concentration (0.675 mM), saturating leucine
T2 sequence (B9JQP8 1-814 T42P/A102N/Q573M/Q413R): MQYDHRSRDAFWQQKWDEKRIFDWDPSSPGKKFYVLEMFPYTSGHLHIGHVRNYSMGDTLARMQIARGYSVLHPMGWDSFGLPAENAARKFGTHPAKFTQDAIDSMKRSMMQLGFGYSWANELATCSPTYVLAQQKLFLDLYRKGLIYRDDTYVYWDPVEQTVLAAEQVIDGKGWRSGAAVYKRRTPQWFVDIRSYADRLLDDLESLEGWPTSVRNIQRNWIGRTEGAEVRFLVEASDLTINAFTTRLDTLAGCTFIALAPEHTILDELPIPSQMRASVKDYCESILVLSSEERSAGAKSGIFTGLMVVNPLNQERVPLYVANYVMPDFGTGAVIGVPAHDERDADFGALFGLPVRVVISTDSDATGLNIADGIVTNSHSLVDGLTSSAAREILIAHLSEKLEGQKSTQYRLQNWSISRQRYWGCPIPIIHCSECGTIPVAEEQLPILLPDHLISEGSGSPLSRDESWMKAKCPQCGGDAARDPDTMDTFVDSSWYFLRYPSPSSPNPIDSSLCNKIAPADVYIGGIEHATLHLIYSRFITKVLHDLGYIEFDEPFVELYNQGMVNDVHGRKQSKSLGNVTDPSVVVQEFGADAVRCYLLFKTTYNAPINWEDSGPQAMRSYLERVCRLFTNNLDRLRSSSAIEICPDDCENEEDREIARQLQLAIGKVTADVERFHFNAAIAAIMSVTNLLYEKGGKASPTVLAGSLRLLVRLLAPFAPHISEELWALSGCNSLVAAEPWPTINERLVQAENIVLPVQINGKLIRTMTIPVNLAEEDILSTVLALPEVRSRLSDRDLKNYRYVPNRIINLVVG
Description: as §1

[7] = biological target: T3, AgnB2 Triple mutant + LS domain (Agrobacterium radiobacter, UniProt B9JQP8, A102N/DEL566-572/Q573M/T42P, form not given); experiment: Isothermal titration calorimetry, AgnB2 Triple mutant + LS domain; assay type: binding, Agrobacterium radiobacter K84; conditions: ITC, enzyme alone
T3 sequence (B9JQP8 1-814 T42P/A102N/Q573M/DEL566-572): T2 sequence (B9JQP8 1-814 T42P/A102N/Q573M/Q413R)
T3 sequence (Q8UBV2 585-631 partner): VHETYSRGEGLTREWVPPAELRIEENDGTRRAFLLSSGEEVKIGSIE
From the text: The LS domain of LeuRSAt (141 bp) was inserted into AgnB2 (replacing the region between amino acid no. 566 and 572 with the LS domain)[37] To obtain this, the forward PCR primer was designed to contain the region of AgnB2 (∼25 bp) preceding the LS domain insertion followed by the first 25 bases of the LS domain (5′–3′). Similarly, the reverse primer was designed so as to include the last 25 bp of the LS domain (3′–5′) and the gene sequence of AgnB2 after the LS domain insertion. An extension reaction was carried out to obtain mega primers, (forward and reverse) encoding the entire LS domain (of LeuRSAt) flanked by the sequence of AgnB2 on both sides using the protocol by Wang and Malcolm[42]. DpnI digestion was then carried out to remove the wt template. The resultant mega primer was gel purified using the Qiaex II gel extraction kit (Qiagen) to be used in the second step. […]
as §2, with “The titrations were carried out in triplicate at 28 °C.” left out

[8] = biological target: LeuRSAt (leucyl-tRNA synthetase); conditions: wt LeuRSAt, aminoacylation; read-out: Ki app; cited from earlier work
[9] = system: AgnB2 Triple (T42P/A102N/Q573M); experiment: Aminoacylation assay, AgnB2 Triple mutant; assay type: biochemical, Agrobacterium radiobacter K84; conditions: 4 nM enzyme, 0.63 mM ATP, 28 °C, pH 7.4
[10] = biological target: T4, wt AgnB2 (LeuRS) (Agrobacterium radiobacter, UniProt B9JQP8); experiment: Isothermal titration calorimetry, wt AgnB2; assay type: binding, Agrobacterium radiobacter K84; conditions: ITC; for Kd: 28 °C
Description: as §2

[11] = system: LeuRSAt Triad (P45T/N105A/M633Q); experiment: Isothermal titration calorimetry, LeuRSAt Triad mutant; assay type: binding, A. tumefaciens; conditions: ITC
Description: as §2

[12] = system: LeuRSAt (leucyl-tRNA synthetase); experiment: Aminoacylation assay, wt LeuRSAt; assay type: biochemical, A. tumefaciens; conditions: 20 nM TM84, 4 nM enzyme, 0.63 mM ATP, 28 °C, pH 7.4
Description: as §1, with “Aminoacylation activities of AgnB2, LeuRSAt and their mutants were measured in 50 mM HEPES buffer (pH 7.4) containing 20 mM KCl, 25 mM MgCl2, 25 mM β-ME, 4 mM ATP, 500 μM [3,4,5-^3H]” left out

[13] = biological target: T4, wt AgnB2 (LeuRS); experiment: Aminoacylation assay, wt AgnB2; conditions: for Ki: 2 nM enzyme
[14] = system: CC(C)C[C@H](N)C(=O)O; experiment: ATP/PPi exchange assay (amino acid activation), LeuRSAt; assay type: biochemical, A. tumefaciens; conditions: other: ATP-PPi exchange, substrate, 28 °C, pH 7.4
Description: The formation of Leu-AMP by ATP/PPi exchange assays was performed as described earlier. Briefly, the reaction buffer contained 50 mM HEPES buffer (pH 7.4), 20 mM KCl, 10 mM MgCl2, 500 μM L-leucine, 4 mM ATP, 1 mM tetrasodium pyrophosphate (NaPPi), 10 μCi/mmol [^32P] NaPPi and 1 μM bovine serum albumin (BSA). The reaction was initiated by addition of 1–4 nM of active enzyme and incubated at 28 °C. Aliquots (5 μl each) were collected over 30 min and quenched in a 10% charcoal slurry containing 0.5% HCl and 50 μl of 200 mM sodium pyrophosphate in 1 M HCl. Liquid scintillation counting was then used to measure the amount of [^32P]-PPi incorporation into ATP that was adsorbed onto the charcoal.

[15] = biological target: T5, AgnB2 (TM84-resistant leucyl-tRNA synthetase) (Agrobacterium radiobacter K84 (plasmid pAgK84)) (UniProt B9JQP8); experiment: ITC
T5 sequence: T2 sequence (B9JQP8 1-814 T42P/A102N/Q573M/Q413R)

[16] = system: CC(C)C[C@H](N)C(=O)O; experiment: purified protein, by the assay type; conditions: substrate, 28 °C, pH 7.4

T1 sequence (P56457 whole entry): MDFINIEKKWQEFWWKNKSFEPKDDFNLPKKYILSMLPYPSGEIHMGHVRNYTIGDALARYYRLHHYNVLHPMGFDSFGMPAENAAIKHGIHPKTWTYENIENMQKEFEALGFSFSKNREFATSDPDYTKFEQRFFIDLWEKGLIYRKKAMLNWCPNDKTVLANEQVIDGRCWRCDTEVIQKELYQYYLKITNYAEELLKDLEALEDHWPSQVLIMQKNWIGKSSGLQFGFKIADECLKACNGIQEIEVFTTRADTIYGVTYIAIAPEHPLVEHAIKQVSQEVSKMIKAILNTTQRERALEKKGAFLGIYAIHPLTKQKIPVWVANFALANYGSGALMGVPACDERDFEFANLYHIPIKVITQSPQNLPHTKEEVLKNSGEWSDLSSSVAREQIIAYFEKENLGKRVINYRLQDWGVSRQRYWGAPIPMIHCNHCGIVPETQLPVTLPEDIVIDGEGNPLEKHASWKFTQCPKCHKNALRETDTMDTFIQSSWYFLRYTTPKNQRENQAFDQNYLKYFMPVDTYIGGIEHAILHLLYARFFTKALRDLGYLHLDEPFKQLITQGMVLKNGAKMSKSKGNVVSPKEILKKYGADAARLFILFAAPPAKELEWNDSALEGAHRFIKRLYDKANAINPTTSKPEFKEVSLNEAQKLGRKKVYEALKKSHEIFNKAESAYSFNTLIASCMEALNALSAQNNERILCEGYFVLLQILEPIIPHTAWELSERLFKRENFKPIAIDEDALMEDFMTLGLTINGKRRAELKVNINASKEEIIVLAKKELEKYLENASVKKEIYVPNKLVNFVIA

With CC(C)[C@@H](O)[C@H](O)C(=O)NP(=O)(O)OC[C@@H]1C[C@H](O)[C@H](n2cnc3c(N)ncnc32)O1 [TM84] as the molecule, how does the “effect on aminoacylation activity” value [1] read?
The value was “almost no effect”.

What about the IC50 [2] of the same molecule?
Its IC50 is 0.034 ± 0.00114 µM.

What about the “binding of TM84 to enzyme·tRNALeu complex tighter than wt AgnB2” value ([3]; AgnB2 Triple Q413R·tRNALeu complex) of the same molecule?
The value was “sixfold”.

What about the “binding of TM84 to enzyme alone tighter than wt enzyme” value ([3]; enzyme alone) of the same molecule?
Its value is 1.3 fold.

What about the “effect of mutations on TM84 binding, enzyme alone” value ([4]; AgnB2 Triple alone vs wt AgnB2) of the same molecule?
Its value is “no significant effect”.

And the “increase in binding of TM84 to the AgnB2·tRNALeu complex” value ([4]; AgnB2 Triple with tRNALeu vs wt AgnB2)?
Its value is 3.5 fold.

And the “inhibition of agrobacterial IleRS” value [5]?
Its value is “does not inhibit”.

And the IC50 [6]?
The IC50 was 2.9 µM.

What about the “increase in TM84 binding alone compared with wt AgnB2” value [7] of the same molecule?
Its value is “fourfold”.

And the Ki [8]?
Its Ki is 0.0003 ± 0.0001 µM.

And the activity remaining [9]?
Its activity remaining is 13%.

And the “reduction in AgnB2-binding affinity compared with LeuRSAt” value ([10]; binary binding, AgnB2 vs LeuRSAt (ref 23))?
The value was 6.9 fold.

What about the “decrease in affinity, AgnB2·tRNA·TM84 compared with LeuRSAt·tRNA·TM84 complex” value ([10]; ternary complex) of the same molecule?
Its value is roughly 330 fold.

And the Kd ([10]; ligand binding to AgnB2 alone, pH 7.4)?
The Kd was 1.05 µM.

And the Kd ([10]; TM84 binding to AgnB2 with pre-bound tRNA, AgnB2 with pre-bound tRNA)?
The Kd was 0.332 µM.

What about the “decrease in TM84 binding affinity compared with LeuRSAt, enzyme alone” value ([11]; LeuRSAt Triad alone) of the same molecule?
The value was 10 fold.

And the “decrease in TM84 binding affinity compared with LeuRSAt, enzyme pre-incubated with tRNALeu” value ([11]; LeuRSAt Triad pre-incubated with tRNALeu)?
The value was 28 fold.

What about the activity remaining [12] of the same molecule?
Its activity remaining is 4%.

What about the IC50 [13] of the same molecule?
The IC50 was 61.3 µM.

What about the “change in aminoacylation activity” value ([13]; 4 nM enzyme, 0.63 mM ATP, 28 °C, pH 7.4) of the same molecule?
Its value is “No change”.

And the “mode of inhibition with regards to ATP and leucine” value ([13]; aminoacylation, Lineweaver-Burk)?
Its value is “weak competitive inhibitor”.

What about the Ki ([13]; apparent TM84 Ki, varying leucine, aminoacylation, fixed ATP 1 mM, 28 °C, pH 7.4) of the same molecule?
Its Ki is 1.38 ± 0.28 µM.

And the Ki ([13]; apparent TM84 inhibition constant (Ki), varying ATP, aminoacylation, fixed leucine, AgnB2·tRNALeu pre-incubated, 28 °C, pH 7.4)?
The Ki was 4.72 ± 0.75 µM.

Which results are given for LeuRSAt (Agrobacterium fabrum str. C58)?
Km [14]: 9.7 ± 0.7 µM; kcat [14]: 85 ± 1.6 s⁻¹

With tRNALeu (agrobacterial) as the molecule, how does the Kd [15] read?
Its Kd is 0.31 µM.

Which Km ([16]; other: ATP-PPi exchange) does the source give for “wt AgnB2 (LeuRS) (Rhizobium rhizogenes K84)” here?
The Km was 12 ± 2 µM.

And the kcat ([16]; other: ATP-PPi exchange)?
The kcat was 73 ± 3.6 s⁻¹.

What about the Km ([16]; other: aminoacylation) of the same molecule?
Its Km is 28.7 ± 7.3 µM.

What about the kcat ([16]; other: aminoacylation) of the same molecule?
The kcat was 0.35 ± 0.03 s⁻¹.
